{"source": "patent US20170071880A1", "about": "“SELEGILINE TRANSDERMAL SYSTEM” (KAT Transdermals LLC, priority 2012, published 2017)", "experiment": "Solubility of selegiline in pressure sensitive adhesive polymers", "type": "physicochemical", "source_text": "The invention pertains to the transdermal delivery of selegiline for the treatment of depression, Parkinson's disease and other neurologic conditions. […] Acrylic pressure sensitive adhesives (PSAs) that could be used with the invention include those based on pure acrylate monomers as well as acrylate copolymers and terpolymers using for example as the comonomers vinyl acetate or hydrocarbon copolymers which may also include pacifiers and other pressure sensitive adhesive modifiers. Commercially available acrylate copolymers include those made by Henkel Corporation under the trade names of Duro-Tak 87-900A (DT 87-900A), 87-901A, 87-9301, 87-9088, and 87-4098. […] Of specific interest is the pressure sensitive adhesive DT 87-4098 which is the only copolymer mentioned above that contains vinyl acetate and which has low levels of peel, shear and tack which can then be enhanced by the incorporation of large amounts of plasticizing liquids such as selegiline. Since these polymers are not crosslinked, the resistance of movement of the drug through the patch itself will be very low thus enhancing the permeability through human skin. Thus it is an object of our invention to use non-crosslinked acrylate copolymer PSAs in matrix selegiline patches, especially PSA DT 87-4098, to provide for excellent permeation of selegiline through human skin. Another object of our invention is to use humectant/solubilizers in the matrix patch to provide for stabilization of the patch through absorption and immobilization of the liquids in the patch. For example such humectant/solubilizers include PVP, PVP/VA, hydroxypropylcellulose, hydroxyethylcellulose, hydroxypropylmethylcellulose, methyl cellulose, Sodium carboxymethyl cellulose, colloidal silica, Xantham Gum, and polyacrylic acid. By experiment we determined that the best humectant/solubilizer for matrix patches delivering selegiline is PVP/VA. PVP/VA has the ability to properly disperse/solubilize within the PSA matrix and to provide additional stability to the matrix, absorb the liquid selegiline base and prevent syneresis. In prior art, PVP was specifically excluded from the use in selegiline patches, which in our case, where we use non crosslinked acrylic PSAs, are shown to be very important to the development of a patch of our invention. It is another object of our invention to incorporate in the matrix PSA humectant/solubilizers, and especially PVP/VA, in the amounts of between 3 to 30% on the weight of the PSA, to provide for better syneresis, adhesion to skin and more rapid permeation of the drug through the skin. The ability of the composition of our patch is such that volatile and non-volatile enhancers can be included in the formulations, which are specifically excluded in the prior art Volatile enhancers for the case of our invention are liquids that have a vapor pressure at 20 degrees Centigrade which is higher than 0.2 mm Hg. Volatile enhancers such as Dimethylsulfoxide (DMSO), decylmethylsulfoxide lactates such as ethyl lactate and propyl lactate isobutyl lactate and lauryl lactate can be incorporated in the PSA matrix system of the selegiline patch of our invention. Thus it is another object of our invention to incorporate volatile enhancers in our patch so as to increase the permeation of selegiline through the human skin and reduce the size of the patch. […]", "data": [{"molecule": "C#CCN(C)[C@H](C)Cc1ccccc1", "note": "[selegiline]", "values": [{"measurement": "solubility of selegiline in PSA", "setting": "in non-crosslinked acrylic copolymer PSA DT 87-4098", "value": 59, "unit": "wt %"}, {"measurement": "solubility of selegiline in PSA", "setting": "in non-crosslinked acrylic copolymer PSA DT 87-9088", "value": 118, "unit": "wt %"}, {"measurement": "solubility of selegiline in PSA", "setting": "in non-crosslinked acrylic copolymer PSA DT 87-9301", "value": 81, "unit": "wt %"}, {"measurement": "solubility of selegiline in PSA", "setting": "in polyisobutylene (PIB) PSA", "value": 8, "unit": "wt %"}, {"measurement": "solubility of selegiline in PSA", "setting": "in silicone PSA", "value": 6, "unit": "wt %"}]}]}
